{"source": "patent US9234222B2", "about": "“Microbial strains producing sphingoid bases or derivatives thereof” (EVONIK DEGUSSA GMBH, priority 2004, dated 2016)", "system": "Pichia ciferrii strains", "assay": "Minimal inhibitory concentration of SyringomycinE on YEPD agar plates", "assay_type": "cell-based", "conditions": "10 μg/ml in YEPD selective plates", "description": "In order to isolate high sphinganine producing Pichia ciferrii strains the following procedure was followed. First, the natural sensitivity of Pichia ciferrii strains for the toxic compound SyringomycinE, produced by […] syringae (Gross D C, 1985, Regulation of syringomycin synthesis in Pseudomonas syringae pv. syringae and defined conditions for its production. J Appl Bacteriol. 58:167-174), was determined by adding different concentrations of SyringomycinE to agar plates. A stock solution of 3.5 mg SyringomycinE (obtained from J. Takemoto, Utah State University) was prepared by dissolving it in 1.0 ml 0.001 N HCl. The pH was kept below 7 for stability and stored at −20° C. The minimal inhibitory concentration (=MIC-value) for Pichia ciferrii strains was determined by using YEPD plates (per liter: Yeast Extract, 10 g; Pepton, 20 g; Glucose, 20 g; Agar, 20 g) containing various concentrations between 0.1 and 20 μg/ml syringomycinE. On each plate with the different concentrations of syringomycinE 100 μl of a freshly grown culture (OD600 nm=0.4) was plated and incubated at 30° C. for 5 days.\nDepending on the strain no colonies appeared on plates with 2 to 10 μg/ml of SyringomycinE, meaning that the MIC value lies between 2 and 10 μg/ml. […]", "note": "Bridge positions count the residues as written; N and C are the ends. Square brackets hold non-standard residues; d marks the D form. Peptide text beside a SMILES is read from it. * marks the point of attachment. Asp(3S-OH) = N[C@H](C(=O)O)[C@H](O)C(=O)O; Thr(4-Cl) = N[C@H](C(=O)O)[C@H](O)CCl; X1 = CCCCCCCCC[C@@H](O)CC(=O)*; dDab = NCC[C@@H](N)C(=O)O; Dab = NCC[C@H](N)C(=O)O; Dhb = C/C=C(\\N)C(=O)O"}
{"molecule": "C/C=C1\\NC(=O)[C@H](Cc2ccccc2)NC(=O)[C@H](CCCN=C(N)N)NC(=O)[C@@H](CCN)NC(=O)[C@H](CCN)NC(=O)[C@@H](CO)NC(=O)[C@@H](NC(=O)C[C@H](O)CCCCCCCCC)COC(=O)[C@H]([C@H](O)CCl)NC(=O)[C@H]([C@H](O)C(=O)O)NC1=O", "note": "[SyringomycinE] (X1-S[dS][Dab][dDab]RF[Dhb][Asp(3S-OH)][Thr(4-Cl)]; ester 1-C)", "values": [{"measurement": "effect on standard P. ciferrii strains", "value": "lethal"}]}
